Data taken from US4551450A, “Rifamycin hydrazones, pharmaceutical compositions containing them and their use” (Ciba-Geigy Corporation, priority 1984, dated 1985).
In brackets after ≈: the same amount, converted by molar mass. Like-named read-outs stand apart in the source and are kept apart here.

Columns and labels:
[1] = system: Mycobacterium tuberculosis TB H3 Rv; assay: Antituberculotic action, minimum inhibitory concentration in a plate test in vitro; type: cell-based; details: M. tuberculosis TB H3 Rv; for Antituberculotic action, MIC (minimum inhibitory concentration): plate test in vitro; for MIC: Mycobacterium tuberculosis, TBH3RV, read-out: Antituberculotic action, MIC (minimum inhibitory concentration), plate test in vitro
Text: (§1) (2) Test organism: Mycobacterium tuberculosis TB H3 Rv
(3) Minimum inhibitory concentration in a plate test in vitro.

[2] = system: Mycobacterium tuberculosis TB H3 Rv; assay: Antituberculotic action, in vivo test (mice), administration p.o.; set-up: species or system Mycobacterium tuberculosis; mice; details: for ED50: Mycobacterium tuberculosis, TBH3RV, po
Text: as §1
(4) In vivo test (mice); administration p.o.

Pharmacokinetics in mice = type: in vivo; details: for half-life / Cmax: mouse; for half-life: read-out: t/2 (half-life period of excretion) (converted); for Cmax / Cmax (highest concentration of the active ingredient in the blood plasma): blood plasma; for Cmax: read-out: Cmax (highest concentration of the active ingredient in the blood plasma)
Text: (§2) (5) Half-life period of excretion (in hours).
(§3) (6) Highest concentration of the active ingredient in the blood plasma.

Pharmacokinetics in rats = type: in vivo; details: for half-life / Cmax: rat; for half-life: in vivo, read-out: t/2 (half-life period of excretion) (converted); for Cmax / Cmax (highest concentration of the active ingredient in the blood plasma): blood plasma; for Cmax: read-out: Cmax (highest concentration of the active ingredient in the blood plasma)
Text: as §2, §3

tuberculosis infections = details: prior art, U.S. Pat. No. 3,342,810; cited from earlier work
[3] = prior art statement, in some cases; cited from earlier work
[4] = in vivo, mice, p.o., read-out: Antituberculotic action, ED50

SMILES: CCC1CCC2CN(N=Cc3c4c(O)c5c(O)c(C)c6c(c5c3O)C(=O)[C@@](C)(O/C=C/[C@H](OC)[C@@H](C)[C@@H](OC(C)=O)[C@H](C)[C@H](O)[C@H](C)[C@@H](O)[C@@H](C)/C=C/C=C(/C)C(=O)N4)O6)CCN2C1 (single isomer, unassigned) [Example 4 Isomer A, hydrazone of 3-formylrifamycin SV with 3-amino-7-ethylperhydro-1H-pyrido[1,2-a]pyrazine]
- Antituberculotic action, MIC (minimum inhibitory concentration) ([1]; listed as 4 Isomer A): 0.01 µg/mL
- ED50 [2, 4]: 0.8 mg/kg
- half-life (Pharmacokinetics in mice; in vivo): 55.1 h
- Cmax (Pharmacokinetics in mice; plasma): 29500 ng/mL

SMILES: CCC1CCC2CN(N=Cc3c4c(O)c5c(O)c(C)c6c(c5c3O)C(=O)[C@@](C)(O/C=C/[C@H](OC)[C@@H](C)[C@@H](OC(C)=O)[C@H](C)[C@H](O)[C@H](C)[C@@H](O)[C@@H](C)/C=C/C=C(/C)C(=O)N4)O6)CCN2C1 (single isomer, unassigned) [Example 4 Isomer B, hydrazone of 3-formylrifamycin SV with 3-amino-7-ethylperhydro-1H-pyrido[1,2-a]pyrazine]
- Antituberculotic action, MIC (minimum inhibitory concentration) ([1]; listed as 4 Isomer B): 0.03 µg/mL
- Antituberculotic action, ED50 ([2]; in vivo, mice, p.o.): 1 mg/kg
- t/2 (half-life period of excretion) (Pharmacokinetics in mice): 44.6 h
- Cmax (highest concentration of the active ingredient in the blood plasma) (Pharmacokinetics in mice): 26400 ng/mL

SMILES: COC1C=COC2(C)Oc3c(C)c(O)c4c(O)c(c(C=NN5CC6CCCCN6CC5C)c(O)c4c3C2=O)NC(=O)C(C)=CC=CC(C)C(O)C(C)C(O)C(C)C(OC(C)=O)C1C (single isomer, unassigned) [Example 5 Isomer A, hydrazone of 3-formylrifamycin SV with 3-amino-2-methylperhydro-1H-pyrido[1,2-a]pyrazine]
- Antituberculotic action, MIC (minimum inhibitory concentration) ([1]; listed as 5 Isomer A): 0.2 µg/mL
- ED50 [2, 4]: 3 mg/kg
- Cmax (highest concentration of the active ingredient in the blood plasma) (Pharmacokinetics in mice; listed as 5 Isomer A): 15000 ng/mL
- t/2 (half-life period of excretion) (Pharmacokinetics in mice; listed as 5 Isomer A): 69.3 h
- half-life (Pharmacokinetics in rats): 58.5 h
- Cmax (Pharmacokinetics in rats; plasma): 19700 ng/mL

SMILES: COC1C=COC2(C)Oc3c(C)c(O)c4c(O)c(c(C=NN5CC6CCCCN6CC5C)c(O)c4c3C2=O)NC(=O)C(C)=CC=CC(C)C(O)C(C)C(O)C(C)C(OC(C)=O)C1C (single isomer, unassigned) [Example 5 Isomer B, hydrazone of 3-formylrifamycin SV with 3-amino-2-methylperhydro-1H-pyrido[1,2-a]pyrazine]
- Antituberculotic action, MIC (minimum inhibitory concentration) ([1]; listed as 5 Isomer B): 0.4 µg/mL
- Antituberculotic action, ED50 ([2]; in vivo, mice, p.o., listed as 5 Isomer B): 2 mg/kg
- Cmax (highest concentration of the active ingredient in the blood plasma) (Pharmacokinetics in mice; listed as 5 Isomer B): 38800 ng/mL
- t/2 (half-life period of excretion) (Pharmacokinetics in mice; listed as 5 Isomer B): 66 h
- t/2 (half-life period of excretion) (Pharmacokinetics in rats): 44.7 h
- Cmax (highest concentration of the active ingredient in the blood plasma) (Pharmacokinetics in rats): 16400 ng/mL

SMILES: COC1C=COC2(C)Oc3c(C)c(O)c4c(O)c(c(C=NN5CC6CCCCN6CC5C)c(O)c4c3C2=O)NC(=O)C(C)=CC=CC(C)C(O)C(C)C(O)C(C)C(OC(C)=O)C1C (single isomer, unassigned) [Example 5 Isomer C, hydrazone of 3-formylrifamycin SV with 3-amino-2-methylperhydro-1H-pyrido[1,2-a]pyrazine]
- Antituberculotic action, MIC (minimum inhibitory concentration) ([1]; listed as 5 Isomer C): 0.06 µg/mL
- Antituberculotic action, ED50 ([2]; in vivo, mice, p.o., listed as 5 Isomer C): 3 mg/kg
- Cmax (highest concentration of the active ingredient in the blood plasma) (Pharmacokinetics in mice; listed as 5 Isomer C): 23700 ng/mL
- t/2 (half-life period of excretion) (Pharmacokinetics in mice; listed as 5 Isomer C): 15 h

SMILES: COC1C=COC2(C)Oc3c(C)c(O)c4c(O)c(c(C=NN5CC6CCCCN6CC5C)c(O)c4c3C2=O)NC(=O)C(C)=CC=CC(C)C(O)C(C)C(O)C(C)C(OC(C)=O)C1C (single isomer, unassigned) [Example 5 Isomer D, hydrazone of 3-formylrifamycin SV with 3-amino-2-methylperhydro-1H-pyrido[1,2-a]pyrazine]
- Antituberculotic action, MIC (minimum inhibitory concentration) ([1]; listed as 5 Isomer D): 0.06 µg/mL
- Antituberculotic action, ED50 ([2]; in vivo, mice, p.o., listed as 5 Isomer D): 3 mg/kg
- Cmax (highest concentration of the active ingredient in the blood plasma) (Pharmacokinetics in mice; listed as 5 Isomer D): 33600 ng/mL
- t/2 (half-life period of excretion) (Pharmacokinetics in mice; listed as 5 Isomer D): 25.1 h

SMILES: CO[C@H]1/C=C/O[C@@]2(C)Oc3c(C)c(O)c4c(O)c(c(C=NN5CCN6C(CCC7CCCCC76)C5)c(O)c4c3C2=O)NC(=O)/C(C)=C\C=C\[C@H](C)[C@H](O)[C@@H](C)[C@@H](O)[C@@H](C)[C@H](OC(C)=O)[C@@H]1C (single isomer, unassigned) [Example 6 Isomer A, hydrazone of 3-formylrifamycin SV with 3-aminoperhydro-1H-pyrazino[1,2-a]quinoline]
- Antituberculotic action, MIC (minimum inhibitory concentration) ([1]; listed as 6 Isomer A): 0.03 µg/mL
- Cmax (Pharmacokinetics in mice; in vivo): 56300 ng/mL
- half-life (Pharmacokinetics in mice; in vivo): 33.4 h

SMILES: CO[C@H]1/C=C/O[C@@]2(C)Oc3c(C)c(O)c4c(O)c(c(C=NN5CCN6C(CCC7CCCCC76)C5)c(O)c4c3C2=O)NC(=O)/C(C)=C\C=C\[C@H](C)[C@H](O)[C@@H](C)[C@@H](O)[C@@H](C)[C@H](OC(C)=O)[C@@H]1C (single isomer, unassigned) [Example 6 Isomer B, hydrazone of 3-formylrifamycin SV with 3-aminoperhydro-1H-pyrazino[1,2-a]quinoline]
- Antituberculotic action, MIC (minimum inhibitory concentration) ([1]; listed as 6 Isomer B): 0.007 µg/mL
- t/2 (half-life period of excretion) (Pharmacokinetics in mice): 40.9 h
- Cmax (highest concentration of the active ingredient in the blood plasma) (Pharmacokinetics in mice): 34000 ng/mL

SMILES: COC1C=COC2(C)Oc3c(C)c(O)c4c(O)c(c(C=NN5CCN6CCCCC6C5)c(O)c4c3C2=O)NC(=O)C(C)=CC=CC(C)C(O)C(C)C(O)C(C)C(OC(C)=O)C1C (centres unmarked) [Example 1]
- Antituberculotic action, MIC (minimum inhibitory concentration) [1]: 0.03 µg/mL
- Antituberculotic action, ED50 ([2]; in vivo, mice, p.o.): 0.8 mg/kg
- t/2 (half-life period of excretion) (Pharmacokinetics in mice): 20 h
- Cmax (highest concentration of the active ingredient in the blood plasma) (Pharmacokinetics in mice): 27300 ng/mL
- t/2 (half-life period of excretion) (Pharmacokinetics in rats): 17.0 h
- Cmax (highest concentration of the active ingredient in the blood plasma) (Pharmacokinetics in rats): 24500 ng/mL

SMILES: CO[C@H]1/C=C/O[C@@]2(C)Oc3c(C)c(O)c4c(O)c(c(C=NN5CCN6CCCC6C5)c(O)c4c3C2=O)NC(=O)/C(C)=C\C=C\[C@H](C)[C@H](O)[C@@H](C)[C@@H](O)[C@@H](C)[C@H](OC(C)=O)[C@@H]1C (some centres unmarked) [Example 2, hydrazone of 3-formylrifamycin SV with 3-aminoperhydropyrrolo[1,2-a]pyrazine]
- MIC [1]: 0.1 µg/mL (≈ 0.118 µM)
- ED50 [2, 4]: 2.5 mg/kg
- half-life (Pharmacokinetics in mice; in vivo): 9.1 h
- Cmax (Pharmacokinetics in mice; plasma): 57700 ng/mL
- half-life (Pharmacokinetics in rats): 13.2 h
- Cmax (Pharmacokinetics in rats; plasma): 11600 ng/mL

SMILES: CO[C@H]1/C=C/O[C@@]2(C)Oc3c(C)c(O)c4c(O)c(c(C=NN5CCN6C(C)CCCC6C5)c(O)c4c3C2=O)NC(=O)/C(C)=C\C=C\[C@H](C)[C@H](O)[C@@H](C)[C@@H](O)[C@@H](C)[C@H](OC(C)=O)[C@@H]1C (some centres unmarked) [Example 3, hydrazone of 3-formylrifamycin SV with 3-amino-8-methylperhydro-1H-pyrido[1,2-a]pyrazine]
- MIC [1]: 0.4 µg/mL (≈ 0.456 µM)
- ED50 ([2]; read-out: Antituberculotic action, ED50, in vivo, mice, p.o.): 1 mg/kg
- half-life (Pharmacokinetics in mice; in vivo): 14 h
- Cmax (Pharmacokinetics in mice; plasma): 22600 ng/mL

SMILES: CO[C@H]1/C=C/O[C@@]2(C)Oc3c(C)c(O)c4c(O)c(c(C=NN5CCN6c7ccccc7CCC6C5)c(O)c4c3C2=O)NC(=O)/C(C)=C\C=C\[C@H](C)[C@H](O)[C@@H](C)[C@@H](O)[C@@H](C)[C@H](OC(C)=O)[C@@H]1C (some centres unmarked) [Example 7, hydrazone of 3-formylrifamycin SV with 3-amino-2,3,4,4a,5,6-hexahydro-1H-pyrazino[1,2-a]quinoline]
- MIC [1]: 0.06 µg/mL (≈ 0.0659 µM)
- ED50 [2, 4]: 4.5 mg/kg
- half-life (Pharmacokinetics in mice; in vivo): 32.2 h
- Cmax (Pharmacokinetics in mice; plasma): 24000 ng/mL

SMILES: CO[C@H]1/C=C/O[C@@]2(C)Oc3c(C)c(O)c4c(O)c(c(C=NN5CCN6CCSCC6C5)c(O)c4c3C2=O)NC(=O)/C(C)=C\C=C\[C@H](C)[C@H](O)[C@@H](C)[C@@H](O)[C@@H](C)[C@H](OC(C)=O)[C@@H]1C (some centres unmarked) [Example 8, hydrazone of 3-formylrifamycin SV with 6-aminoperhydropyrazolo[2,1-c]-p-thiazine]
- MIC [1]: 0.2 µg/mL (≈ 0.227 µM)
- ED50 [2, 4]: 8 mg/kg
- half-life (Pharmacokinetics in mice; in vivo): 8.9 h
- Cmax (Pharmacokinetics in mice; plasma): 72000 ng/mL

SMILES: COC1C=COC2(C)Oc3c(C)c(O)c4c(O)c(c(C=NN5CCN6CCN(C)CC6C5)c(O)c4c3C2=O)NC(=O)C(C)=CC=CC(C)C(O)C(C)C(O)C(C)C(OC(C)=O)C1C (centres unmarked) [Example 9, hydrazone of 3-formylrifamycin SV with 3-amino-6-methylperhydro-1H-pyrazino[1,2-a]pyrazine]
- Antituberculotic action, MIC (minimum inhibitory concentration) [1]: 0.1 µg/mL

SMILES: CO[C@H]1/C=C/O[C@@]2(C)Oc3c(C)c(O)c4c(O)c(c(/C=N/N5CCN(C)CC5)c(O)c4c3C2=O)NC(=O)/C(C)=C\C=C\[C@H](C)[C@H](O)[C@@H](C)[C@@H](O)[C@@H](C)[C@H](OC(C)=O)[C@@H]1C [Rifampicin, hydrazone of 3-formylrifamycin SV with 1-amino-4-methylpiperazine, reference compound]
- MIC [1]: 0.03 µg/mL (≈ 0.0365 µM)
- ED50 [2, 4]: 5.9 mg/kg
- Cmax (Pharmacokinetics in mice; plasma): 24800 ng/mL
- Cmax (Pharmacokinetics in rats): 13900 ng/mL
- antituberculotic activity (tuberculosis infections): excellent antituberculotic activity
- dwell time in the organism [3]: relatively short dwell time in the organism
